Data on 29 substances can be found in patent US10385103B2, “Cell-permeable (ICP)-SOCS3 recombinant protein and uses thereof” (CELLIVERY THERAPEUTICS, INC., priority 2014, dated 2019).

For this assay, the system named is RAW 264.7 cells. In words: Quantitative cell-permeability of FITC-labeled aMTD- or rPeptide-fused CRA recombinant proteins (flow cytometry). The assay is classed as cell-based. To be noted: for Relative Ratio to aMTD AVE: cell-permeability of rPeptide-fused CRA recombinant protein relative to average of 240 aMTDs. Summed up: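 Uptake of fluorescently labeled, peptide-fused cargo proteins was quantified by flow cytometry (Guava, Millipore) and analyzed in FlowJo software. RAW 264.7 cells received 10 μM FITC-labeled protein for 1 hour at 37° C., were rinsed three times with cold PBS, and were trypsinized with 0.25% tripsin/EDTA for 20 minutes at 37° C. to remove bound protein before measurement. Permeability was expressed relative to reference proteins.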
For orientation: A flow cytometer gives signals particle by particle.

[1] abbreviates: cell-permeability relative to negative control rP38 (A type), aMTD-fused CRA recombinant protein, 10 μM FITC-labeled, 1 hour, 37° C., RAW 264.7 cells.
The mark [2] stands for this setting: cell-permeability relative to reference CPP MTD85 (C type), aMTD-fused CRA recombinant protein, 10 μM FITC-labeled, 1 hour, 37° C., RAW 264.7 cells.
The mark [3] stands for this setting: cell-permeability relative to reference CPP MTM12 (B type), aMTD-fused CRA recombinant protein, 10 μM FITC-labeled, 1 hour, 37° C., RAW 264.7 cells.
Where [4] appears, read: cell-permeability of aMTD-fused CRA recombinant protein relative to negative control (A: rP38).
Where [5] appears, read: cell-permeability of aMTD-fused CRA recombinant protein relative to reference CPP (B: MTM12).
Setting [6] is: cell-permeability of aMTD-fused CRA recombinant protein relative to reference CPP (C: MTD85).
The mark [7] stands for this setting: 10 μM FITC-labeled, 1 hour, 37° C., RAW 264.7 cells.

Consider “583 (AVILALAPIVAP; Amino acid Sequence of aMTD583) [compound 583]”, for which the “Relative Ratio (Fold) A” value under setting [1] worked out at 7.3 Fold. Also, the “Relative Ratio (Fold) C” value under setting [2] came to 2.4 Fold. In addition, the “Relative Ratio (Fold) B” value under setting [3] is listed as 4.8 Fold.
As to “585 (ALIVAIAPALVP; Amino acid Sequence of aMTD585) [compound 585]”, the “Relative Ratio (Fold) A” value under setting [1] is given as 6.6 Fold. In addition, under setting [2], the “Relative Ratio (Fold) C” value was 2.2 Fold. Further, the “Relative Ratio (Fold) B” value under setting [3] was 4.4 Fold.
Regarding “601 (AAILIAVPIAAP; Amino acid Sequence of aMTD601) [compound 601]”, under setting [4], the “Relative Ratio (Fold) A” value is given as 26.8 Fold. Further, the “Relative Ratio (Fold) B” value under setting [5] is 17.9 Fold. For the same substance, under setting [6], the “Relative Ratio (Fold) C” value was determined as 9.0 Fold.
Regarding “602 (VIVALAAPVLAP; Amino acid Sequence of aMTD602) [compound 602]”, the “Relative Ratio (Fold) A” value under setting [4] is 9.9 Fold. Further, the “Relative Ratio (Fold) B” value under setting [5] came out at 5.8 Fold. Moreover, under setting [6], the “Relative Ratio (Fold) C” value was found to be 3.4 Fold.
Regarding “603 (VLVALAAPVIAP; Amino acid Sequence of aMTD603) [compound 603]”, under setting [4], the “Relative Ratio (Fold) A” value amounted to 54.1 Fold. Also, under setting [5], the “Relative Ratio (Fold) B” value was 36.1 Fold. Moreover, the “Relative Ratio (Fold) C” value under setting [6] worked out at 18.2 Fold.
For the substance “604 (VALIAVAPAVVP; Amino acid Sequence of aMTD604) [compound 604]”, under setting [1], the “Relative Ratio (Fold) A” value was 4.3 Fold. Further, under setting [2], the “Relative Ratio (Fold) C” value came out at 1.5 Fold. Moreover, the “Relative Ratio (Fold) B” value under setting [3] came to 2.5 Fold.
For the substance “605 (VIAAVLAPVAVP; Amino acid Sequence of aMTD605) [compound 605]”, the “Relative Ratio (Fold) A” value under setting [4] is recorded as 11.0 Fold. In addition, the “Relative Ratio (Fold) B” value under setting [5] is given as 7.4 Fold. The “Relative Ratio (Fold) C” value under setting [6] amounted to 3.7 Fold.
For the substance “622 (ALIVLAAPVAVP; Amino acid Sequence of aMTD622) [compound 622]”, the “Relative Ratio (Fold) A” value under setting [4] is listed as 10.6 Fold and the “Relative Ratio (Fold) A” value under setting [1] amounted to 10.6 Fold. In addition, the “Relative Ratio (Fold) B” value reads like this: under setting [5], 7.1 Fold; under setting [3], 7.1 Fold. Besides, the “Relative Ratio (Fold) C” value by setting is: under setting [6], 3.6 Fold; under setting [2], 3.6 Fold.
Consider “623 (VAAAIALPAIVP; Amino acid Sequence of aMTD623) [compound 623]”, for which the “Relative Ratio (Fold) A” value under setting [1] is given as 0.8 Fold. Besides, the “Relative Ratio (Fold) C” value under setting [2] is reported as 0.3 Fold. For the same substance, the “Relative Ratio (Fold) B” value under setting [3] was 0.6 Fold.
For “625 (ILAAAAAPLIVP; Amino acid Sequence of aMTD625) [compound 625]”, the “Relative Ratio (Fold) A” value under setting [4] turned out to be 20.3 Fold. Besides, under setting [5], the “Relative Ratio (Fold) B” value is 13.9 Fold. Also, the “Relative Ratio (Fold) C” value under setting [6] is 7.0 Fold.
As for “635 (GSTGGSQQNNQY; Amino acid Sequence of rPeptide ID 635) [compound 635]”, the “Relative Ratio to aMTD AVE” value under setting [7] is listed as 0.07.
Consider “643 (LALVLAAPAIVP; Amino acid Sequence of aMTD643) [compound 643]”, for which, under setting [4], the “Relative Ratio (Fold) A” value is reported as 11.8 Fold. In addition, under setting [5], the “Relative Ratio (Fold) B” value amounted to 7.9 Fold. For the same substance, the “Relative Ratio (Fold) C” value under setting [6] is 4.0 Fold.
With “645 (ALAVVALPAIVP; Amino acid Sequence of aMTD645) [compound 645]”, the “Relative Ratio (Fold) A” value under setting [1] is 4.3 Fold. Moreover, under setting [2], the “Relative Ratio (Fold) C” value was found to be 1.5 Fold. Under setting [3], the “Relative Ratio (Fold) B” value worked out at 2.9 Fold.
In the case of “661 (AAILAPIVAALP; Amino acid Sequence of aMTD661) [compound 661]”, the “Relative Ratio (Fold) A” value under setting [4] turned out to be 21.4 Fold. The “Relative Ratio (Fold) B” value under setting [5] is recorded as 14.3 Fold. For the same substance, the “Relative Ratio (Fold) C” value under setting [6] is reported as 7.2 Fold.
As for “664 (ILIAIAIPAAAP; Amino acid Sequence of aMTD664) [compound 664]”, the “Relative Ratio (Fold) A” value under setting [1] was 5.7 Fold. In addition, under setting [2], the “Relative Ratio (Fold) C” value is 1.9 Fold. Also, the “Relative Ratio (Fold) B” value under setting [3] was 3.8 Fold.
As to “665 (LAIVLAAPVAVP; Amino acid Sequence of aMTD665) [compound 665]”, the “Relative Ratio (Fold) A” value under setting [4] is reported as 14.7 Fold. Moreover, the “Relative Ratio (Fold) B” value under setting [5] was 9.9 Fold. Besides, under setting [6], the “Relative Ratio (Fold) C” value is listed as 5.0 Fold.
In the case of “666 (AAIAIIAPAIVP; Amino acid Sequence of aMTD666) [compound 666]”, under setting [4], the “Relative Ratio (Fold) A” value was found to be 14.7 Fold. Further, the “Relative Ratio (Fold) B” value under setting [5] amounted to 9.9 Fold. Under setting [6], the “Relative Ratio (Fold) C” value stood at 5.0 Fold.
Take “667 (LAVAIVAPALVP; Amino acid Sequence of aMTD667) [compound 667]”: the “Relative Ratio (Fold) A” value under setting [1] was found to be 6.9 Fold. The “Relative Ratio (Fold) C” value under setting [2] was 2.3 Fold. Moreover, the “Relative Ratio (Fold) B” value under setting [3] amounted to 4.6 Fold.
As to “683 (LAIVLAAPAVLP; Amino acid Sequence of aMTD683) [compound 683]”, the “Relative Ratio (Fold) A” value under setting [1] was 5.5 Fold. The “Relative Ratio (Fold) C” value under setting [2] is 1.9 Fold. Further, the “Relative Ratio (Fold) B” value under setting [3] was found to be 3.2 Fold.
On to “684 (AAIVLALPAVLP; Amino acid Sequence of aMTD684) [compound 684]”, for which, under setting [1], the “Relative Ratio (Fold) A” value is reported as 3.5 Fold. In addition, the “Relative Ratio (Fold) C” value under setting [2] is on record as 1.2 Fold. In addition, the “Relative Ratio (Fold) B” value under setting [3] was found to be 2.1 Fold.
As for “685 (ALLVAVLPAALP; Amino acid Sequence of aMTD685) [compound 685]”, the “Relative Ratio (Fold) A” value under setting [4] is given as 10.2 Fold. Moreover, the “Relative Ratio (Fold) B” value under setting [5] amounted to 5.9 Fold. For the same substance, under setting [6], the “Relative Ratio (Fold) C” value came to 3.4 Fold.
Regarding “686 (AALVAVLPVALP; Amino acid Sequence of aMTD686) [compound 686]”, the “Relative Ratio (Fold) A” value under setting [4] is recorded as 19.5 Fold. Under setting [5], the “Relative Ratio (Fold) B” value amounted to 13.1 Fold. The “Relative Ratio (Fold) C” value under setting [6] amounted to 6.6 Fold.
Turning to “687 (AILAVALPLLAP; Amino acid Sequence of aMTD687) [compound 687]”, under setting [4], the “Relative Ratio (Fold) A” value was determined as 12.0 Fold. Further, the “Relative Ratio (Fold) B” value under setting [5] is listed as 7.0 Fold. Under setting [6], the “Relative Ratio (Fold) C” value is on record as 4.1 Fold.
Regarding “692 (PAPLPPVVILAV; Amino acid Sequence of rPeptide ID 692) [compound 692]”, under setting [7], the “Relative Ratio to aMTD AVE” value turned out to be 0.74.
The same measure, in the same setting: the same measure for “693 (AAPVLPVAVPIV; Amino acid Sequence of rPeptide ID 693) [compound 693]”: 0.13.
With “700 (GTSNTCQSNQNS; Amino acid Sequence of rPeptide ID 700) [compound 700]”, under setting [7], the “Relative Ratio to aMTD AVE” value is 0.05. For the same substance, the “Relative Ratio (Fold) A” value (relative cell-permeability of rPeptide vs reference A (not defined)) is 1.0 Fold. Besides, under “relative cell-permeability of rPeptide vs reference CPP B: MTM12”, the “Relative Ratio (Fold) B” value is listed as 0.6 Fold. Where the note is “relative cell-permeability of rPeptide vs reference CPP C: MTD85”, the “Relative Ratio (Fold) C” value stood at 0.3 Fold.
Consider “703 (IVAVALVPALAP; Amino acid Sequence of aMTD703) [compound 703]”, for which the “Relative Ratio (Fold) A” value under setting [4] is listed as 29.2 Fold. The “Relative Ratio (Fold) B” value under setting [5] was 19.5 Fold. Under setting [6], the “Relative Ratio (Fold) C” value amounted to 9.9 Fold.
Consider “705 (IVAVALLPALAP; Amino acid Sequence of aMTD705) [compound 705]”, for which, under setting [4], the “Relative Ratio (Fold) A” value is on record as 29.6 Fold. The “Relative Ratio (Fold) B” value under setting [5] was 19.1 Fold. In addition, the “Relative Ratio (Fold) C” value under setting [6] is listed as 9.7 Fold.
Consider “706 (IVAVALLPAVAP; Amino acid Sequence of aMTD706) [compound 706]”, for which the “Relative Ratio (Fold) A” value under setting [4] came to 12.0 Fold. Moreover, the “Relative Ratio (Fold) B” value under setting [5] is reported as 7.0 Fold. Further, under setting [6], the “Relative Ratio (Fold) C” value is on record as 4.1 Fold.
